How the values were obtained:
[1] = tested on: U937 human histiocytic leukemia cell line; assay: Cellular assay: inhibition of TSQ induced necroptosis (CellTitre-Glo); conditions: Homo sapiens, U-937; U937 cells, TSQ cocktail, 48 hours, Table 38; read-out: Inhibition of TSQ-induced necroptosis (IC50 cell-based assay)
Procedure, shortened: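 U937 cells (20,000/well) pre-dosed with compound (10-point, 1:3 from 36 μM, 0.3% DMSO), then TSQ (hTNF-Fc 100 ng/ml, Smac mimetic 500 nM, Q-VD-OPh 10 μM) for 48 h at 37 °C. Viability by CellTiter-Glo luminescence, normalised to DMSO (100%) and DMSO+TSQ (0%); IC50 from 4-parameter fit.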

[2] = tested on: U937 cells; assay: Counter screen: cell viability without TSQ cocktail (off-target effect); design: species or system human; conditions: Homo sapiens, U-937, Table 38, read-out: Off-target effect (IC50 cell-based assay)
Description: Counter screen: In parallel, all compounds were tested for their ability to affect cell viability. The same U937 cells were treated with compound in DMSO without the TSQ cocktail. This counter screen enabled evaluation of off-target effects. In this case, cell viability was measured by CelltiterGlo.

[3] = molecular target: endogenous MLKL in U937 (Homo sapiens (Human), UniProt Q8NB16); assay: Degradation assay: degradation of endogenous MLKL in human cells (Western blot); conditions: 24 h incubation, read-out: Degradation of endogenous MLKL in U937 (DC50 cell-based assay in μM)
Sequence of endogenous MLKL in U937 (Q8NB16 whole entry): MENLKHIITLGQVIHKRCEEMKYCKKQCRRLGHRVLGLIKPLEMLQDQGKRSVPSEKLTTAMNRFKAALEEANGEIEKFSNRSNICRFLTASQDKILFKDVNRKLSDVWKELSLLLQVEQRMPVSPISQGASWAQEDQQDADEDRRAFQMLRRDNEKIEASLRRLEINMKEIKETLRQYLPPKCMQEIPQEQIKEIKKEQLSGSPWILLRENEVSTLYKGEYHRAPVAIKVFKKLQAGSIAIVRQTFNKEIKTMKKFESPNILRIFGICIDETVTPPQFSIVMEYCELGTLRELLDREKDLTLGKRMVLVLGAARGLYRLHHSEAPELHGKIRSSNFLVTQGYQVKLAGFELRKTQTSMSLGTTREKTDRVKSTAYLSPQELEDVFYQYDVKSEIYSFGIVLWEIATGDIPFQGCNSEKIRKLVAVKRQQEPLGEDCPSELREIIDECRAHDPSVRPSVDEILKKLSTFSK

[4] = molecular target: MLKL (full length) (Homo sapiens (Human), UniProt Q8NB16); assay: KINOMEscan binding assay, MLKL (full length); conditions: Table 36
Sequence of MLKL (full length) (Q8NB16 whole entry): as above
Description: Kinase assays. For most assays, kinase-tagged T7 phage strains were grown in parallel in 24-well blocks in an E. coli host derived from the BL21 strain. E. coli were grown to log-phase and infected with T7 phage from a frozen stock (multiplicity of infection=0.4) and incubated with shaking at 32° C. until lysis (90-150 minutes).
The Hill Slope was set to −1.

[5] = molecular target: MLKL (Homo sapiens (Human), UniProt Q8NB16); assay: Binding to MLKL (KD), in vitro; conditions: in vitro assays
Sequence of MLKL (Q8NB16 whole entry): as above

Structure (SMILES)	IC50 [1]	IC50 [2]	DC50 [3]	Kd [4]	Kd [5]
CCS(=O)(=O)Nc1ccc(-c2n[nH]c(Nc3ccc(C(=O)OCCCCCC(=O)N[C@H](C(=O)N4C[C@H](O)C[C@H]4C(=O)NCc4ccc(-c5scnc5C)cc4)C(C)(C)C)cn3)c2C(N)=O)cc1O[C@@H](C)c1ccc(F)cc1 [Compound 1057, 5-{[(2S)-1-[(2S,4R)-4-hydroxy-2-({[4-(4-methyl-1,3-thiazol-5-yl)phenyl]methyl}carbamoyl)pyrrolidin-1-yl]-3,3-dimethyl-1-oxobutan-2-yl]carbamoyl}pentyl 6-[(4-carbamoyl-3-{4-ethanesulfonamido-3-[(1S)-1-(4-fluorophenyl)ethoxy]phenyl}-1H-pyrazol-5-yl)amino]pyridine-3-carboxylate]	< 1000 nM	> 10000 nM	< 1 µM	< 10 nM	–
CCS(=O)(=O)Nc1ccc(-c2n[nH]c(Nc3ccc(C(=O)OCCCCCCC(=O)N[C@H](C(=O)N4C[C@H](O)C[C@H]4C(=O)NCc4ccc(-c5scnc5C)cc4)C(C)(C)C)cn3)c2C(N)=O)cc1O[C@@H](C)c1ccc(F)cc1 [Compound 1058, 6-{[(2S)-1-[(2S,4R)-4-hydroxy-2-({[4-(4-methyl-1,3-thiazol-5-yl)phenyl]methyl}carbamoyl)pyrrolidin-1-yl]-3,3-dimethyl-1-oxobutan-2-yl]carbamoyl}hexyl 6-[(4-carbamoyl-3-{4-ethanesulfonamido-3-[(1S)-1-(4-fluorophenyl)ethoxy]phenyl}-1H-pyrazol-5-yl)amino]pyridine-3-carboxylate]	< 1000 nM	> 10000 nM	< 1 µM	10 to 1000 nM	–
CCS(=O)(=O)Nc1ccc(-c2n[nH]c(Nc3ccc(C(=O)OCCCCC(=O)N[C@H](C(=O)N4C[C@H](O)C[C@H]4C(=O)NCc4ccc(-c5scnc5C)cc4)C(C)(C)C)cn3)c2C#N)cc1O[C@@H](C)c1ccc(F)cc1 [Compound 1061, 4-{[(2S)-1-[(2S,4R)-4-hydroxy-2-({[4-(4-methyl-1,3-thiazol-5-yl)phenyl]methyl}carbamoyl)pyrrolidin-1-yl]-3,3-dimethyl-1-oxobutan-2-yl]carbamoyl}butyl 6-[(4-cyano-3-{4-ethanesulfonamido-3-[(1S)-1-(4-fluorophenyl)ethoxy]phenyl}-1H-pyrazol-5-yl)amino]pyridine-3-carboxylate]	–	–	–	–	~2000 nM

From patent publication US20250074891A1 (Anaxis Pharma Pty Ltd., priority 2021, published 2025)
